Measurements taken from patent US8623855B2, “Azetidinone compounds and medical use thereof” (Zhejiang Hisun Pharmaceutical Co., Ltd., priority 2009, dated 2014).
Where two headings read alike, the source gives them in different places.

System: hypercholesterolemia golden hamster model
Test: In vivo pharmacodynamic screening in hypercholesterolemia model of golden hamster (plasma TC and LDL-C)
Details: for inhibition in vivo at 1 mg/kg / inhibition in vivo at 10 mg/kg / inhibition in vivo at 5 mg/kg / inhibition in vivo at 0.4 mg/kg / inhibition in vivo at 2 mg/kg / inhibition in vivo at 3 mg/kg: Mesocricetus auratus, po, 168 h; for LDL after administration / TC after administration / LDL-C after administration: 1 week, plasma; for reduction of plasma TC and LDL-C levels (in words): significant statistical difference; for effect of lowering cholesterol (screening result in words): in vivo pharmacodynamic screening test, Ezetimibe as positive control; for efficacy compared with the positive control (in words): positive control Ezetimibe
Description: 1. Establishment of Hypercholesterolemia Model of Golden Hamster:
The animals were subjected to acclimation feeding for 1 week with free feeding and drinking under a lighting condition of 10 h/14 h. On Day 8, the animals were raised with high fat feed (consisting of 0.5% cholesterol, 20% palm oil, 79.5% basal feed) for 1 week. Then, each animal was anesthetized by ether. After weighing, 0.5 ml blood was obtained from orbital vein, anticoagulated with heparin and centrifuged at 5000 rpm for 10 min. The plasma was collected and the levels of plasma TC (total cholesterol) and LDL-C (low density lipoprotein cholesterol) were determined by automatic biochemical analyzer. Animals with plasma TC of 9-15 mmol/L were selected as model animals (refer to the following reference for the method of animal modeling: Burrier, R. E., Smith, A. A., Mcgregor, D. G, Hoos, L. M., Zilli, D. L., Davis, H. R. The effect of acyl CoA: cholesterol acyltransferase inhibition on the uptake, esterification and secretion of cholesterol by the hamster small intestine. J. Pharm. Exp. Ther., 1995, 272, 156-163).
The animals were grouped according to TC and LDL-C levels and weight with 6 animals per group. Ezetimibe was used as positive control. The animals were intragastrically administered at a volume of 5 ml/kg for 1 week. Each animal was anesthetized by ether. After weighing, 0.5 ml blood was taken from orbital vein, anticoagulated with heparin, and centrifuged at 5000 rpm for 10 min. The plasma was collected and plasma TC (total cholesterol) and LDL-C (low density lipoprotein cholesterol) levels were determined by automatic biochemical analyzer to evaluate the efficacy of the compounds.

[1] = Table 10, read-out: Reducing LDL-C %
[2] = Table 10, read-out: Reducing TC %
[3] = golden hamster hypercholesterolemic model
[4] = Table 6, read-out: Reducing LDL-C %
[5] = Table 6, read-out: Reducing TC %
[6] = Table 12, read-out: Reducing LDL-C %
[7] = Table 12, read-out: Reducing TC %
[8] = Table 11, 10 mg/kg intragastric
[9] = Table 11, baseline of group dosed 10 mg/kg
[10] = Table 2, read-out: Reducing LDL-C %
[11] = Table 2, read-out: Reducing TC %
[12] = Table 1, 0.4 mg/kg intragastric
[13] = Table 8, read-out: Reducing LDL-C %
[14] = Table 8, read-out: Reducing TC %

CC(=O)Oc1ccc([C@@H]2[C@@H](C/C=C(\CO)c3ccc(F)cc3)C(=O)N2c2ccc(F)cc2)cc1 [I-6(Z), (3R,4S)-4-(4-acetoxyphenyl)-1-(4-fluorophenyl)-3-[(Z)-3-(4-fluorophenyl)-4-hydroxy-but-2-enyl]azetidin-2-one]
inhibition in vivo at 1 mg/kg [1]: 50.2%
inhibition in vivo at 1 mg/kg [2]: 51.5%
inhibition in vivo at 10 mg/kg [1]: 70.4%
inhibition in vivo at 10 mg/kg [2]: 65.6%
LDL after administration (Table 9, 1 mg/kg intragastric): 1.57 mmol/L
TC after administration (Table 9, 1 mg/kg intragastric): 7.45 mmol/L
LDL after administration (Table 9, 10 mg/kg intragastric): 0.93 mmol/L
TC after administration (Table 9, 10 mg/kg intragastric): 5.28 mmol/L
reduction of plasma TC and LDL-C levels (in words) [3]: can significantly reduce the plasma TC and LDL-C levels
effect of lowering cholesterol (screening result in words): have the effect of lowering cholesterol
efficacy compared with the positive control (in words): more similar to the positive control

CC(=O)OC/C(=C\C[C@H]1C(=O)N(c2ccc(F)cc2)[C@@H]1c1ccc(O)cc1)c1ccc(F)cc1 [I-12(Z), (3R,4S)-3-[(Z)-4-acetoxy-3-(4-fluorophenyl)-but-2-enyl]-1-(4-fluorophenyl)-4-(4-hydroxyphenyl)azetidin-2-one]
inhibition in vivo at 1 mg/kg [4]: 62.8%
inhibition in vivo at 1 mg/kg [5]: 50.9%
inhibition in vivo at 10 mg/kg [4]: 71.5%
inhibition in vivo at 10 mg/kg [5]: 54.8%
LDL after administration (Table 5, 1 mg/kg intragastric): 1.58 mmol/L
TC after administration (Table 5, 1 mg/kg intragastric): 5.29 mmol/L
LDL after administration (Table 5, 10 mg/kg intragastric): 1.34 mmol/L
TC after administration (Table 5, 10 mg/kg intragastric): 4.86 mmol/L
reduction of plasma TC and LDL-C levels (in words) [3]: can significantly reduce the plasma TC and LDL-C levels
effect of lowering cholesterol (screening result in words): have the effect of lowering cholesterol

CC(=O)OC/C(=C\C[C@H]1C(=O)N(c2ccc(F)cc2)[C@@H]1c1ccc(OC(=O)c2ccccc2)cc1)c1ccc(F)cc1 [I-16(Z), (3R,4S)-3-[(Z)-4-acetoxy-3-(4-fluorophenyl)-but-2-enyl]-4-(4-benzoyloxyphenyl)-1-(4-fluorophenyl)azetidin-2-one]
inhibition in vivo at 1 mg/kg [1]: 31.7%
inhibition in vivo at 1 mg/kg [2]: 37.4%
inhibition in vivo at 10 mg/kg [1]: 65%
inhibition in vivo at 10 mg/kg [2]: 60.9%
LDL after administration (Table 9, 1 mg/kg intragastric): 2.15 mmol/L
TC after administration (Table 9, 1 mg/kg intragastric): 9.61 mmol/L
LDL after administration (Table 9, 10 mg/kg intragastric): 1.1 mmol/L
TC after administration (Table 9, 10 mg/kg intragastric): 6.0 mmol/L
reduction of plasma TC and LDL-C levels (in words) [3]: can significantly reduce the plasma TC and LDL-C levels
effect of lowering cholesterol (screening result in words): have the effect of lowering cholesterol

O=C(Oc1ccc([C@@H]2[C@@H](C/C=C(\CO)c3ccc(F)cc3)C(=O)N2c2ccc(F)cc2)cc1)c1ccccc1 [I-5(Z), (3R,4S)-4-(4-benzoyloxyphenyl)-1-(4-fluorophenyl)-3-[(Z)-3-(4-fluorophenyl)-4-hydroxy-but-2-enyl]azetidin-2-one]
inhibition in vivo at 1 mg/kg [1]: 30.7%
inhibition in vivo at 1 mg/kg [2]: 31.2%
inhibition in vivo at 10 mg/kg [1]: 68.1%
inhibition in vivo at 10 mg/kg [2]: 62.7%
LDL after administration (Table 9, 1 mg/kg intragastric): 2.18 mmol/L
TC after administration (Table 9, 1 mg/kg intragastric): 10.55 mmol/L
LDL after administration (Table 9, 10 mg/kg intragastric): 1.0 mmol/L
TC after administration (Table 9, 10 mg/kg intragastric): 5.73 mmol/L
reduction of plasma TC and LDL-C levels (in words) [3]: can significantly reduce the plasma TC and LDL-C levels
effect of lowering cholesterol (screening result in words): have the effect of lowering cholesterol

COc1ccc([C@@H]2[C@@H](C/C=C(\CO)c3ccc(F)cc3)C(=O)N2c2ccc(F)cc2)cc1 [I-2(Z)]
inhibition in vivo at 5 mg/kg [6]: 63.4%
inhibition in vivo at 5 mg/kg [7]: 62.2%
LDL-C after administration [8]: 1.01
TC after administration [8]: 4.82
LDL-C before administration [9]: 2.76 ± 0.43
TC before administration [9]: 12.74 ± 1.32
reduction of plasma TC and LDL-C levels (in words) [3]: can significantly reduce the plasma TC and LDL-C levels
effect of lowering cholesterol (screening result in words): have the effect of lowering cholesterol
efficacy compared with the positive control (in words): more similar to the positive control

O=C1[C@H](C/C=C(/CO)c2ccc(F)cc2)[C@@H](c2ccc(O)cc2)N1c1ccc(F)cc1 [I-1(E), (3R,4S)-1-(4-fluorophenyl)-3-[(E)-3-(4-fluorophenyl)-4-hydroxy-but-2-enyl]-4-(4-hydroxyphenyl)azetidin-2-one]
inhibition in vivo at 0.4 mg/kg [10]: -16.4%
inhibition in vivo at 0.4 mg/kg [11]: -26.1%
inhibition in vivo at 2 mg/kg [10]: 0%
inhibition in vivo at 2 mg/kg [11]: -20.9%
inhibition in vivo at 10 mg/kg [10]: 30.7%
inhibition in vivo at 10 mg/kg [11]: 11.7%
LDL-C after administration [12]: 2.84 ± 0.59 mmol/L
TC after administration [12]: 12.42 ± 1.4 mmol/L
LDL-C after administration (Table 1, 2 mg/kg intragastric): 2.21 ± 0.37 mmol/L
TC after administration (Table 1, 2 mg/kg intragastric): 11.19 ± 0.69 mmol/L
LDL-C after administration (Table 1, 10 mg/kg intragastric): 1.74 ± 0.62 mmol/L
TC after administration (Table 1, 10 mg/kg intragastric): 8.7 ± 0.93 mmol/L
LDL-C before administration (Table 1, baseline of group dosed 0.4 mg/kg): 2.44 ± 0.46 mmol/L
LDL-C before administration (Table 1, baseline of group dosed 2 mg/kg): 2.21 ± 0.47 mmol/L
LDL-C before administration (Table 1, baseline of group dosed 10 mg/kg): 2.51 ± 0.91 mmol/L
reduction of plasma TC and LDL-C relative to the amount reduced by Ezetimibe and I-1 (Z) [3]: less than 50%
reduction of plasma TC and LDL-C levels (in words) [3]: can also lower plasma TC and LDL-C levels
effect of lowering cholesterol (screening result in words): certain effect on cholesterol-lowering

CC(=O)OC/C(=C\C[C@H]1C(=O)N(c2ccc(F)cc2)[C@@H]1c1ccc(OC(C)=O)cc1)c1ccc(F)cc1 [I-11(Z), (3R,4S)-3-[(Z)-4-acetoxy-3-(4-fluorophenyl)-but-2-enyl]-4-(4-acetoxyphenyl)-1-(4-fluorophenyl)azetidin-2-one]
inhibition in vivo at 1 mg/kg [1]: 47.7%
inhibition in vivo at 1 mg/kg [2]: 48%
inhibition in vivo at 10 mg/kg [1]: 59.2%
inhibition in vivo at 10 mg/kg [2]: 60.2%
LDL after administration (Table 9, 1 mg/kg intragastric): 1.65 mmol/L
TC after administration (Table 9, 1 mg/kg intragastric): 7.98 mmol/L
LDL after administration (Table 9, 10 mg/kg intragastric): 1.28 mmol/L
TC after administration (Table 9, 10 mg/kg intragastric): 6.11 mmol/L
reduction of plasma TC and LDL-C levels (in words) [3]: can significantly reduce the plasma TC and LDL-C levels
effect of lowering cholesterol (screening result in words): have the effect of lowering cholesterol

O=C1[C@H](C/C=C(\CO)c2ccc(F)cc2)[C@@H](c2ccc(Oc3ccccc3)cc2)N1c1ccc(F)cc1 [I-3(Z)]
inhibition in vivo at 10 mg/kg [6]: 66.3%
inhibition in vivo at 10 mg/kg [7]: 50.8%
LDL-C after administration [8]: 1.14
TC after administration [8]: 6.23
LDL-C before administration [9]: 3.38 ± 0.84
TC before administration [9]: 12.67 ± 1.35
reduction of plasma TC and LDL-C levels (in words) [3]: can significantly reduce the plasma TC and LDL-C levels
effect of lowering cholesterol (screening result in words): have the effect of lowering cholesterol
efficacy compared with the positive control (in words): more similar to the positive control

O=C(OC/C(=C\C[C@H]1C(=O)N(c2ccc(F)cc2)[C@@H]1c1ccc(O)cc1)c1ccc(F)cc1)c1ccc(F)cc1 [I-14(Z)]
inhibition in vivo at 1 mg/kg [13]: 28.6%
inhibition in vivo at 1 mg/kg [14]: 13.5%
inhibition in vivo at 3 mg/kg [13]: 52.3%
inhibition in vivo at 3 mg/kg [14]: 44.4%
LDL after administration (Table 7, 1 mg/kg intragastric): 2.56 mmol/L
TC after administration (Table 7, 1 mg/kg intragastric): 9.34 mmol/L
LDL after administration (Table 7, 3 mg/kg intragastric): 2.01 mmol/L
TC after administration (Table 7, 3 mg/kg intragastric): 6.06 mmol/L
reduction of plasma TC and LDL-C levels (in words) [3]: can significantly reduce the plasma TC and LDL-C levels
effect of lowering cholesterol (screening result in words): have the effect of lowering cholesterol
